Key:
[1] = test system: eukaryotic translation initiation factor 2 alpha (eIF2α); test: eIF2α phosphorylation by immunofluorescence with phosphoneoepitope-specific antibody; format: cell-based, human; conditions: U2OS; 10, 50 or 100 nM; 6 hours
Method: Human osteosarcoma U2OS cells were treated with 10, 50 or 100 nM lurbinectedin (Lurbi) for 6 hours. Thapsigargin (Thaps, 3 μM) was used as a positive control. The cells were fixed with 3.7% PFA and DNA was stained with 1 μM Hoechst 33342. Following the phosphorylation of the eukaryotic translation initiation factor 2 alpha (eIF2a) was assessed with phosphoneoepitope-specific antibody and was monitored by means of automated microscopy as an increase in cytoplasmic fluorescence intensity. (a,b) The level of transcription was measured in U2OS cell treated as above with Lurbi. The transcription inhibitor actinomycin D (ActD) was used as a control. The cells were fixed as above and following the colocalization of nucleolin and fibrillarin was assessed as an indicator for transcriptional activity (c,d) Scale bar equals 10 μm and bar charts depict mean values±SD of quadruplicate assessments (*p<0.01; *p<0.001, two-tailed Student's t test).
In a systematic screening campaign, the capacity of lurbinectedin to induce immunogenic cell death in cancer cells was assessed in human osteosarcoma U2OS cells stably expressing fluorescent biosensors for the detection of CALR-relocation (as a surrogate marker for CALR surface exposure), HMGB1 release and Type I IFN responses together with U2OS WT cells stained with the ATP-sensitive dye quinacrine. […]

[2] = test system: U2OS biosensor cells expressing GFP under the MX1 promoter; test: Type I IFN response (MX1-GFP biosensor cells treated with supernatant); format: cell-based, human; conditions: supernatant of treated U2OS cells after 48 hours fresh media; biosensor cells 48 hours; throughout all time points
Method: In a systematic screening campaign, the capacity of lurbinectedin to induce immunogenic cell death in cancer cells was assessed in human osteosarcoma U2OS cells stably expressing fluorescent biosensors for the detection of CALR-relocation (as a surrogate marker for CALR surface exposure), HMGB1 release and Type I IFN responses together with U2OS WT cells stained with the ATP-sensitive dye quinacrine. […] The induction of cell death was evaluated based on changes in the nuclear morphology visualized by means of the DNA intercalating dye Hoechst 33342.

[3] = test system: human osteosarcoma U2OS cells; test: Loss of viability by nuclear morphology (Hoechst 33342), automated microscopy; format: cell-based; conditions: lurbinectedin 1 nM to 1 μM, 4, 8, 16 and 32 hours, comparable to MTX 1 and 3 μM
Method: (§1) (a) Human osteosarcoma U2OS (a), human breast cancer HCC70 (b) human colon cancer HT29 cells (c) and murine methylcholantrene-induced fibrosarcoma MCA205 cells (d) were treated with lurbinectedin (Lurbi, 1 nM, 10 nM, 100 nM and 1 μM) for the indicated times. Subsequently, the cells were stained with 1 μM Hoechst 33342 and 1 μM propidium iodide and assessed for the loss of viability by automated image acquisition. Images were segmented, cellular debris was excluded and the number of cells with normal nuclear morphology was enumerated. Cells stably expressing CALR-GFP were treated as above. Following the cells were fixed with 3.7% of PFA, stained with 1 μM Hoechst 33342 and assessed by automated image acquisition. Images were segmented, cellular debris was excluded and CALR-GFP granularity (a surrogate marker of CALR exposure) was evaluated in the cytoplasmic region of cells with normal nuclear morphology. Wild type cells were treated as above and then assessed for cytoplasmic quinacrine granularity (after staining with the ATP-sensitive dye quinacrine together with Hoechst 33342) by automated image acquisition, segmentation and analysis. Cells stably expressing HMGB1-GFP were treated as above and then assessed for nuclear HMGB1-GFP fluorescence intensity. The cells were fixed and stained with Hoechst 33342 and images were acquired, segmented and analyzed. […]

[4] = test system: Murine fibrosarcoma MCA205 cells; test: In vitro cell death of MCA205 cells prepared for vaccination; format: cell-based, mouse; conditions: 1 μM lurbinectedin for 24 h
[5] = test system: U2OS cells stably expressing CALR-GFP; test: CALR-GFP granularity (surrogate marker of CALR exposure); format: cell-based, human; conditions: lurbinectedin 1 nM to 1 μM, MTX 1 and 3 μM, 4-32 hours, vs untreated controls
Method: as §1

[6] = test system: U2OS cells stably expressing HMGB1-GFP; test: HMGB1 release (loss of nuclear HMGB1-GFP fluorescence); format: cell-based, human; conditions: lurbinectedin 1 nM to 1 μM, MTX 1 and 3 μM, medium to late time points
Method: as §1

In the case of COc1ccc2[nH]c3c(c2c1)CCN[C@]31CS[C@@H]2c3c(OC(C)=O)c(C)c4c(c3[C@H](COC1=O)N1[C@@H]2[C@H]2c3c(cc(C)c(OC)c3O)C[C@@H]([C@@H]1O)N2C)OCO4 [lurbinectedin], the “phosphorylation of eIF2α” value [1] is reported as “dose-dependent phosphorylation”, the “de novo GFP signal intensity (type 1 IFN response)” value [2] is reported as “significant increase” and the cellular viability [3] is reported as “dose- and time-dependent drop”. The cell death [4] was “approximately 70%”, the CALR-granularity [5] was “time- and dose-dependent increase” and the “nuclear GFP signal (HMGB1-GFP)” value [6] was “significant decrease”.

From patent US20250295656A1, “COMBINATION OF LURBINECTEDIN AND IMMUNE CHECKPOINT INHIBITORS” (priority 2020, published 2025)
